Measurements: patent EP4610269A1, “UROKINASE PLASMINOGEN ACTIVATOR SURFACE RECEPTOR (UPAR) LIGANDS FOR DIAGNOSTIC OR THERAPEUTIC USE” (3B Pharmaceuticals GmbH, priority 2024, dated 2025)
*1 amine or outer side, *2 acyl side, *3 side chain or, on linkers, in order; H or OH if unused. Where a SMILES comes first, the peptide text is derived from it. Bridges are numbered along the chain shown (N, C = ends). [ ]: non-standard residue; d: D form. The star is where a group is joined. GdDOTA = Gd(III) DOTA conjugate, O=C([O-])CN1CCN(CC(=O)[O-])CCN(CC(=O)*)CCN(CC(=O)[O-])CC1.[Gd+3]; DOTA = O=C(O)CN1CCN(CC(=O)O)CCN(CC(=O)*)CCN(CC(=O)O)CC1; Hyp = O=C(O)[C@@H]1C[C@@H](O)CN1; dCit = NC(=O)NCCC[C@@H](N)C(=O)O; Pentanoyl(4-Me) = CC(C)CCC(=O)*; Cit = NC(=O)NCCC[C@H](N)C(=O)O; Nva = CCC[C@H](N)C(=O)O; CO = O=C([*:1])[*:2]; NHBu = CCCCN*

Tests used:
[1] = target: T1, Recombinant soluble human NEP (Homo sapiens, UniProt P08473); test: Proteolytic stability assay against NEP; assay type: in vitro ADME; conditions: human NEP 100 ng/mL, compound 10 µM, 37°C, LC-MS quantification; for remaining at 24 h, 10 µM: recombinant soluble human NEP, read-out: % intact compound remaining after 24h incubation
T1 construct: Recombinant soluble human NEP; purchased BioTechne, Wiesbaden, Germany
Procedure: To assess the stability of compounds against NEP, the compounds were subjected to an in vitro assay based on the protocol described by Edelson et al. (Edelson, Makhlina et al. 2013).
Recombinant soluble human NEP (BioTechne, Wiesbaden, Germany) at a concentration of 100 ng/mL was mixed with the compound (10 µM) and a stable internal standard (10 µM) and incubated at 37°C. After several time points, samples were taken and analyzed with LC-MS.
The determination of the analyte in the clean sample solutions was performed on an Agilent 1290 UHPLC system coupled to an Agilent 6530 Q-TOF mass spectrometer. The chromatographic separation was carried out on a Phenomenex BioZen XB-C18 HPLC column (50 × 2 mm, 1.7 µm particle size) with gradient elution using a mixture of 0.1% formic acid in water as eluent A and acetonitrile as eluent B (2% B to 41% in 7 min, 800 µl/min, 40°C). Mass spectrometric detection was performed in positive ion ESI mode by scanning the mass range from m/z 50 to 3000 with a sampling rate of 2 / sec.
(§1) From the mass spectrometric raw data the ion currents for the double or triple charged monoisotopic signal was extracted for both, the compound and the internal standard.
(§2) Quantitation was performed by external matrix calibration with internal standard using the integrated analyte signals.
The activity of NEP was examined using a commercially available chromogenic substrate of NEP.
(§3) The result is stated as "% intact compound remaining after 24 h incubation" and means that from the amount of material at the start of the experiment the stated percentage is detected as unchanged material at the end of the experiment by LC-MS quantification. Since all compounds are more than 50% intact after 24 h they are considered as stable enough for diagnostic and therapeutic applications. Table 14: Results of the NEP stability assay

[2] = target: T2, uPAR-expressing HEC-265 human endometrial adenocarcinoma cells (Homo sapiens, UniProt Q03405); test: Competitive FACS binding assay; conditions: pIC50 category of FACS binding
T2 construct: Cell surface uPAR-expressing HEC-265 human endometrial adenocarcinoma cells; host or cells: HEC-265
How it was run: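 Competitive displacement of a 10 nM biotinylated peptide from HEC-265 cells (1 h, 4 °C, PBS/1% BSA), detected via APC-streptavidin by flow cytometry. pIC50 from four-parameter logistic fit of median fluorescence versus concentration.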

human uPAR (uPAR-Fc) = target: T3, human uPAR (uPAR-Fc) (Homo sapiens, UniProt Q03405); test: Surface plasmon resonance (SPR) assay, single cycle kinetics; assay type: binding; conditions: pKD category for uPAR SPR activity assay; uPAR-Fc on Protein A-Chip, single cycle kinetics, 25°C; read-out: pKD CAT (converted)
T3 construct: comprising amino acids Leu23-Arg303 according to UniProt entry Q03405.1; purchased R&D Systems 10378-UK-100
How it was run: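 uPAR-Fc (Leu23-Arg303 extracellular domains, human IgG1 Fc) captured on Protein A chip to ~2000 RU; single-cycle kinetics at 25°C in HEPES running buffer pH 7.4 with 0.1% DMSO. KD from double-referenced sensorgrams fitted to 1:1 Langmuir model, reported as pKD.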

[3] = Plasma stability assay (mouse plasma); assay type: in vitro ADME; conditions: mouse plasma (sodium citrate), 37°C, LC-MS quantification
Procedure: In order to determine the stability of selected compounds of the invention in human and mouse plasma, a plasma stability assay was carried out. Such plasma stability assay measures degradation of compounds of the present invention in blood plasma. This is an important characteristic of a compound as compounds, with the exception of pro-drugs, which rapidly degrade in plasma, generally show poor in vivo efficacy. […] The stability is sufficient for the diagnostic, therapeutic and theragnostic use of these compounds according to the present invention.
The plasma stability samples were prepared by spiking 50 µl plasma aliquots (all sodium citrate 3.7%) with 1 µl of a 0.5 mM compound stock solution in DMSO. After vortexing the samples were incubated in a Thermomixer at 37°C for 0 and 6 hours. After incubation the samples were stored on ice until further treatment. All samples were prepared in duplicates.
A suitable internal standard was added to each sample (1 µl of a 0.5 mM stock solution in DMSO). Protein precipitation was performed using two different methods depending on the compound conditions as indicated in Table 13. • A) 250 µl of acetonitrile containing 1% trifluoroacetic acid was added. After incubation at room temperature for 30 min the precipitate was separated by centrifugation and 150 µl of the supernatant was diluted with 150 µl of 1% aqueous formic acid. • B) 150 µl of a zinc sulphate precipitation agent containing 78% 0.1 M zinc sulphate and 22% acetonitrile was added. After incubation at room temperature for 30 min the precipitate was separated by centrifugation. To 100 µl of the supernatant 10 µl of 1% formic acid was added followed by further incubation at 60°C for 10 min to complete the formation of the zinc chelate, if the compound contains a free DOTA moiety.
The determination of the analyte in the clean sample solutions was performed on an Agilent 1290 UHPLC system coupled to an Agilent 6530 Q-TOF mass spectrometer. The chromatographic separation was carried out on a Phenomenex BioZen XB-C18 HPLC column (50 x 2 mm, 1.7 µm particle size).
Two different elution gradients were applied using a mixture of 0.1% formic acid in water as eluent A and acetonitrile as eluent B: • A) 2% B to 41% in 7 min, 800 µl/min, 40°C. • B) 5% B to 50% B in 6 min, 800 µL/min, 40°C.
Mass spectrometric detection was performed in positive ion ESI mode by scanning the mass range from m/z 50 to 3000 with a sampling rate of 2 / sec.
as §1, §2
Additionally, recovery was determined by spiking a pure plasma sample that only contained the internal standard after treatment with a certain amount of the compound.
Carry-over was evaluated by analysis of a blank sample (20% acetonitrile) after the highest calibration sample.
as §3, with “6” for “24”, “13:” for “14:”, “plasma” for “NEP”

T3 sequence (Q03405 23-303): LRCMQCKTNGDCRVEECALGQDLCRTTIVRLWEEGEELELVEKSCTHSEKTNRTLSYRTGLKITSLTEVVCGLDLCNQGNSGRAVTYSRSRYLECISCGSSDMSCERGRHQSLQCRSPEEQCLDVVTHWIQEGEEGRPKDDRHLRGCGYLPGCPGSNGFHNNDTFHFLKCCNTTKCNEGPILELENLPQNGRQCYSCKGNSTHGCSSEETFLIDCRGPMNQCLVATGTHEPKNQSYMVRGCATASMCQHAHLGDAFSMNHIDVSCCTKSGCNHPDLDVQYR
T2 sequence (Q03405 23-335): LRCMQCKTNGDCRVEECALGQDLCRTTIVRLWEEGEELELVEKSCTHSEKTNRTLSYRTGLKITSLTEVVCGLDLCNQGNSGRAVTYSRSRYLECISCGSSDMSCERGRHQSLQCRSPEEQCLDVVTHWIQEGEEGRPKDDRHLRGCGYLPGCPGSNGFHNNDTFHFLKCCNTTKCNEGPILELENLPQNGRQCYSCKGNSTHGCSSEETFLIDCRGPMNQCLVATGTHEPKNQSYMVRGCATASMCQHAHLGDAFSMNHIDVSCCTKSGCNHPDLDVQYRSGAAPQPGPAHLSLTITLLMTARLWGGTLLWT
T1 sequence (P08473 52-750 limits assumed): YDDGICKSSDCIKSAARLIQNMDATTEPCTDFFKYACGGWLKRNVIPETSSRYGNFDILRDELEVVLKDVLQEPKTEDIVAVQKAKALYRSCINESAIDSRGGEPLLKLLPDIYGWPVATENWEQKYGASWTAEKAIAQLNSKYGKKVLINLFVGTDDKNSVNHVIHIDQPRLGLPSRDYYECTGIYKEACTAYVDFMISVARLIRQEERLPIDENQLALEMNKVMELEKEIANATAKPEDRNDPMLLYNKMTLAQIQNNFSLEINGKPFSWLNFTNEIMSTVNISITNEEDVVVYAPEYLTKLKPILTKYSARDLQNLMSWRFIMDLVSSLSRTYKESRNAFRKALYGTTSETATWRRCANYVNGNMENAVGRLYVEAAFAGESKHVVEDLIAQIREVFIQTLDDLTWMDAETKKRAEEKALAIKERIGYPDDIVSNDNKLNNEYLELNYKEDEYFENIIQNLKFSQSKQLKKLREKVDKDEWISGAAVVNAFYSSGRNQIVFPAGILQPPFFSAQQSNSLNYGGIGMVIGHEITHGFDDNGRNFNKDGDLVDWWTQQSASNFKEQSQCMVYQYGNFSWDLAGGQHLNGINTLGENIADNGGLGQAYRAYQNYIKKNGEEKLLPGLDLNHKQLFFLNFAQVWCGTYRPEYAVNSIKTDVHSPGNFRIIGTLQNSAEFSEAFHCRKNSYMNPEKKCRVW

| remaining at 24 h, 10 µM [1] [%] | IC50 [2] [nM] | Kd (human uPAR (uPAR-Fc)) [nM] | Compound | % intact compound remaining after 24h incubation [1] [%] | % intact compound remaining after 6h incubation Mouse plasma [3] [%] | pIC50 CAT [2] |
| --- | --- | --- | --- | --- | --- | --- |
| 89 | ≤ 10 | < 1.58 | CCCCNC(=O)N[C@H]1CSSC[C@@H](C(N)=O)NC(=O)[C@H](CCC)NC(=O)[C@H]([C@@H](C)CC)NC(=O)[C@@H]2C[C@@H](O)CN2C(=O)[C@@H]2CCCN2C(=O)[C@H](Cc2ccccc2)NC(=O)[C@H](Cc2ccc(O)cc2)NC(=O)[C@H](CCCCNC(=O)CN2CCN(CC(=O)O)CCN(CC(=O)O)CCN(CC(=O)O)CC2)NC(=O)[C@H](CCCNC(N)=O)NC1=O [UPAR-346, nBu-CAyl-[Cys-Cit-Lys(DOTA)-Tyr-Phe-Pro-Hyp-Ile-Nva-Cys]-NH2] ({NHBu-CO}-C[Cit]K(DOTA)YFP[Hyp]I[Nva]C-NH2; disulfide 1-10) |  |  |  |
| > 95 | ≥ 126 | > 100 | CC[C@H](C)[C@@H]1NC(=O)[C@@H](C)NC(=O)[C@@H]2CCCN2C(=O)[C@H](Cc2ccccc2)NC(=O)[C@H](Cc2ccc(O)cc2)NC(=O)[C@H](CCC(N)=O)NC(=O)[C@@H](CCCNC(N)=O)NC(=O)[C@@H](NC(=O)CCC(C)C)CSSC[C@@H](C(N)=O)NC(=O)[C@H](CC(C)C)NC1=O [UPAR-364, iHex-[Cys-cit-Gln-Tyr-Phe-Pro-ala-Ile-Leu-Cys]-NH2] ({Pentanoyl(4-Me)}-C[dCit]QYFP[dA]ILC-NH2; disulfide 1-10) |  |  |  |
| > 95 | ≤ 10 | < 1.58 | CC[C@H](C)[C@@H]1NC(=O)[C@@H]2CCCN2C(=O)[C@@H]2CCCN2C(=O)[C@H](Cc2ccccc2)NC(=O)[C@H](Cc2ccc(O)cc2)NC(=O)[C@H](CCC(N)=O)NC(=O)[C@H](CCCCNC(=O)CN2CCN(CC(=O)O)CCN(CC(=O)O)CCN(CC(=O)O)CC2)NC(=O)[C@@H](NC(=O)CCC(C)C)CSSC[C@@H](C(N)=O)NC(=O)[C@H](CC(C)C)NC1=O [UPAR-466, iHex-[Cys-Lys(DOTA)-Gln-Tyr-Phe-Pro-Pro-Ile-Leu-Cys]-NH2] ({Pentanoyl(4-Me)}-CK(DOTA)QYFPPILC-NH2; disulfide 1-10) |  |  |  |
|  |  |  | iHex-[Cys-Cit-Lys(GdDOTA)-Tyr-Phe-Pro-ala-Ile-Leu-Cys]-NH2 ({Pentanoyl(4-Me)}-C[Cit]K(GdDOTA)YFP[dA]ILC-NH2; disulfide 1-10 (inferred); not fully specified) [UPAR-463] | 88 | 81 | A (pIC50 values ≥8.0) |
